Assay results from PMC10819771 (Pharmaceuticals, 2023).
“And” between values parts separate entries of the source, which are not always exact repeats. Equal values may be shown once.

Experiments:
[1] = tested on: HEK293; experiment: MTT proliferation test on normal cells, HEK293; assay type: cell-based; conditions: Homo sapiens, normal epithelial cells, cytotoxicity, read-out: IC50 Values (μM) ± SEM HEK293
Protocol: The MTT proliferation test on the epithelial cell line HEK293 was performed as pre-viously described. The 50% inhibiting concentrations (IC50) were determined by linear regression analysis.

[2] = tested on: telomerase; experiment: Telomerase activity (TRAP assay) in MCF-7 cell lysates; assay type: biochemical, human; conditions: MCF-7 cell lysate
Protocol: Telomerase activity was assessed using the TRAP assay kit (TRAPeze® RT telomerase detection kit, Chemicon, Millipore Sigma S7700, Merck KGaA, Darmstadt, Germany) according to manufacturer’s instructions with some modifications. Briefly, […] in CHAPS lysis buffer and proteins were extracted. Protein extracts and various concentrations of compounds (0 to 5 µM) were used to extend a synthetic telomeric DNA using an enzymatic reaction (30 °C during 20 min), followed by a quantification of telomeric DNA using a telomeric PCR amplification: 95 °C for 3 min, 2 cycles of 95 °C for 20 s, and 49 °C for 20 s, followed by 30 cycles 95 °C for 20 s and 60 °C for 20 s with signal acquisition) in a Stratagene Mx3005P system (Agilent, Les Ulis, France) using specific telomeric PCR quantitative primers. Each sample was measured in technical duplicate with control DNA. For each drug and each dilution, we used biological triplicate of cell lysates.

[3] = tested on: FK-RAST; experiment: FRET-melting, FK-RAST; assay type: binding; conditions: ligand 2 μM, DNA 0.2 μM, 10 mM KCl, 90 mM LiCl, pH 7.2
[4] = tested on: K562; experiment: MTS cell proliferation assay, K562; assay type: cell-based, human; conditions: for IC50: Homo sapiens, K562, 72 h, MTS, 3-day incubation, leukemia cells, read-out: IC50 Values (μM) ± SEM K562; for Selectivity Index HEK293/K562: IC50 HEK293 / IC50 K562
Summary of the method: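 K562 cells in RPMI 1640 with 10% FCS were exposed in quadruplicate to 0, 1, 5, 10, 20 and 50 μM compound for 1, 2 and 3 days. Viability was read by MTS conversion after 3 h at 37 °C, measured at 490 nm. CC50 after 3 days was obtained by linear regression (μM ± SD).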

[5] = tested on: FBCL-2T (DNA, G4) GGGCGCGGGAGGAAGGGGGCGGG; experiment: FRET melting; conditions: 10 mM K+, 90 mM Li+; 10 mM lithium cacodylate pH 7.2; 0.2 µM DNA, 2 µM compound
[6] = tested on: F21T (DNA, G4) GGGTTAGGGTTAGGGTTAGGG; experiment: FRET melting; conditions: 10 mM K+, 90 mM Li+; 10 mM lithium cacodylate pH 7.2; 0.2 µM DNA, 2 µM compound
[7] = tested on: FK-RAST (DNA, G4) AGGGCGGTGTGGGAAGAGGGA; experiment: FRET melting; conditions: 10 mM K+, 90 mM Li+; 10 mM lithium cacodylate pH 7.2; 0.2 µM DNA, 2 µM compound
[8] = tested on: FdxT (DNA, hairpin, hexaethylene glycol linker between 10 and 11) TATAGCTATATATAGCTATA; experiment: FRET melting; conditions: 10 mM K+, 90 mM Li+; 10 mM lithium cacodylate pH 7.2; 0.2 µM DNA, 2 µM compound
[9] = tested on: Fc-MYCT (DNA, G4) GGGTGGGTAGGGTGGGTAA; experiment: FRET melting; conditions: 1 mM K+, 99 mM Li+ (table footnote says 10 mM KCl, 90 mM LiCl); 10 mM lithium cacodylate pH 7.2; 0.2 µM DNA, 2 µM compound

| Compound | IC50 [1] [µM] | telomerase activity compared to control ([2]; 5 µM compound) | concentration from which MCF-7 telomerase activity is decreased ([2]; 0 to 5 µM tested) [µM] | ΔT1/2 (°C) FK-RAST [3] | IC50 [4] [µM] | Selectivity Index HEK293/K562 [4] | ΔT1/2 [5] [°C] | ΔT1/2 [6] [°C] | ΔT1/2 [7] [°C] | ΔT1/2 [8] [°C] | ΔT1/2 [9] [°C] |
| --- | --- | --- | --- | --- | --- | --- | --- | --- | --- | --- | --- |
| CN(C)CCCNCc1ccc(-c2nc(-c3ccc(CNCCCN(C)C)cc3)c3cc(-c4ccccc4)ccc3n2)cc1 [Compound 12b, 2,4-bis{4-[(3-dimethylaminopropyl)aminomethyl]phenyl}-6-phenylquinazoline] | > 30 | reduced drastically | 0.5 | 17.4 ± 0.6 °C | 14 ± 0.3 | >2.14 | – | – | – | – | – |
| CN1CCN(CCCCNCc2ccc(-c3cc(-c4ccc(CNCCCCN5CCN(C)CC5)cc4)c4cc(-c5ccccc5)ccc4n3)cc2)CC1 [Compound 13d, 2,4-bis{4-[(4-(4-methylpiperazin-1-yl)butyl)aminomethyl]phenyl}-6-phenylquinoline] | – | – | – | 12.7 ± 2.2 °C | 14 ± 0.3 | – | 5.0 ± 1.1 | – | – | – | – |
| CN1CCN(CCCCNCc2ccc(-c3nc(-c4ccc(CNCCCCN5CCN(C)CC5)cc4)c4cc(-c5ccccc5)ccc4n3)cc2)CC1 [Compound 12e, 2,4-bis{4-[(4-(4-methylpiperazin-1-yl)butyl)aminomethyl]phenyl}-6-phenylquinazoline] | – | – | – | 33.1 °C and 33.1 ± 2.1 °C | 13 ± 0.2 | – | 22.7 ± 0.4 | 33.9 ± 0.5 | 33.1 ± 2.1 | 5.4 ± 1.6 | 19.5 ± 1.0 |
| CN(C)CCCNCc1ccc(-c2cc(-c3ccc(CNCCCN(C)C)cc3)c3cc(-c4ccccc4)ccc3n2)cc1 [Compound 13a, 2,4-bis{4-[(3-dimethylaminopropyl)aminomethyl]phenyl}-6-phenylquinoline] | > 30 | – | – | 15.0 ± 0.3 °C | 10 ± 0.4 | >3.0 | – | – | – | – | – |
